Experimental data reported in patent US10124078B2, “Lipid-based nanoparticles” (BOARD OF REGENTS OF THE UNIVERSITY OF HOUSTON SYSTEM, priority 2011, dated 2018).

Key:
[1] = biological target: T1, Aβ plaques (Homo sapiens, UniProt P05067); assay: Ex vivo staining of mouse brain tissue sections (confocal fluorescence), with CG competition; format: binding, APP/PSEN1 transgenic mouse
T1 construct: from tissue; host or cells: brain (cortex and hippocampus) of 5 and 7 month old APP/PSEN1 transgenic mice
Procedure: The mice were engineered to progressively develop cortical and hippocampal plaques in an age-related manner similar to that observed in human AD pathology. Saggital sections (30 μm thick) from euthanized non-transgenic (control), 5, and 7 month old APP/PSEN1 mice were incubated in a 3 mM solution of the liposomes (concentration of Me-XO4 in the solution was 1 μM) for 2 h, at RT. This was followed by extensive washing with PBS to remove unbound liposomes. The stained tissues were mounted with […]® mounting media (Vector Laboratories, Inc., Burlingame, Calif.) to reduce background fluorescence and viewed under a confocal microscope.

[2] = biological target: T2, cortical and hippocampal Aβ plaques (Homo sapiens, UniProt P05067); assay: In vivo delivery to cortical and hippocampal plaques after tail vein injection, confocal microscopy of brain sections; set-up: species or system APP/PSEN1 mice; conditions: 48 h after injection
T2 construct: from tissue; host or cells: brain (cortex and hippocampus) of 5 and 7 month old APP/PSEN1 transgenic mice
Procedure: 48 h following injection, the mice were euthanized and their brains sectioned for confocal light microscopic studies. Identical mice were injected with molecular/free methoxy-XO4 ligand to serve as a positive control, and with untargeted liposomes and saline as negative controls.

T1 sequence (P05067 672-713 limits assumed): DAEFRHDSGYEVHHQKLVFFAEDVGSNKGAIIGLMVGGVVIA
T2 sequence (P05067 672-713 limits assumed): as above

| Structure (SMILES) | competition with Me-XO4-labeled liposomes for Aβ plaque deposits: fluorescence intensity and number of labeled plaques ([1]; 1 μM Me-XO4 and increasing concentrations of CG, cortex and hippocampus) | staining of Aβ plaque deposits on brain sections ([1]; 7 month old APP/PSEN1 mice, 30 μm sagittal sections, 1 μM Me-XO4, 2 h, RT) | in vivo staining of plaques (fluorescence of brain sections) ([2]; 5 month old APP/PSEN1 mice) | in vivo staining of plaques (fluorescence of brain sections) ([2]; 7 month old APP/PSEN1 mice) |
| --- | --- | --- | --- | --- |
| O=C(O)c1cc(/N=N/c2ccc(-c3ccc(/N=N/c4ccc(O)c(C(=O)O)c4)cc3)cc2)ccc1O [CG, Chrysamine G] | decrease in fluorescence intensity and the number of labeled plaques | – | – | – |
| COc1cc(/C=C/c2ccc(O)cc2)ccc1/C=C/c1ccc(O)cc1 [free methoxy-XO4 ligand, methoxy-XO4] | – | same plaque deposition pattern was observed | no noteworthy fluorescence | bright staining of both cortical and hippocampal plaques |
